The source of these data is patent publication US20060030585A1, “Tricyclic delta-opioid modulators” (priority 2004, published 2006).

Where “and” joins values, the source holds several entries; their conditions need not be identical. Equal values may be shown once. Read-outs that look alike come from different tables or passages of the source. Where only a bound is given, the exact number is not on record here.

The target of one experiment is delta opioid receptor (Rattus norvegicus, UniProt P33533). The experiment is described as follows: Rat brain delta opioid receptor binding assay ([3H]DPDPE). The settings on record: Rat delta opioid receptor binding constant, rat forebrain membranes, ~4 nM [3H]DPDPE. The method, boiled down:
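Forebrain membranes from male Sprague Dawley rats in 50 mM Tris HCl pH 7.4 with 5 mM MgCl2, incubated with ~4 nM [3H]DPDPE for 2.5 h at 25° C., then filtered and counted. Single concentrations give % inhibition of specific binding; concentration ranges give Ki.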

Experiment [1] addresses T1, delta opioid receptor (NG108-15 cell membranes) (Mus musculus, UniProt P32300).
T1 construct: NG108-15 cell membranes were purchased from Applied Cell Sciences (Rockville, Md.); host or cells: NG108-15 cell membranes (purchased)
The experiment can be described thus: [35S]GTPγS binding assay in NG108-15 cell membranes (delta opioid). The experiment is classed as biochemical. The settings on record: agonist-stimulated [35S]GTPγS binding. The procedure: [^35S]GTPγS Binding Assay in NG108-15 Cell Membranes (delta opioid)
Methods: NG108-15 cell membranes were purchased from Applied Cell Sciences (Rockville, Md.). 8 mg/mL of membrane protein suspended in 10 mM TRIS-HCl pH 7.2, 2 mM EDTA, 10% sucrose. Membranes were maintained at 4-8° C. A 1 mL volume of membranes was added into 10 mL cold binding assay buffer. The assay buffer contained 50 mM Tris, pH 7.6, 5 mM MgCl2, 100 mM NaCl, 1 mM DTT and 1 mM EGTA. The membrane suspension was homogenized twice with a Polytron, and centrifuged at 3000 rpm for 10 min. The supernatant was then centrifuged at 18,000 rpm for 20 min. Ten mL assay buffer was added into the pellet containing tube. The pellet and buffer were mixed with a Polytron.
Incubation procedure: The pellet membranes (75 μg/mL) were preincubated with SPA (10 mg/mL) at 25° C. for 45 min in the assay buffer. […] GTPγS in the same Tris buffer containing 100 μM GDP in total volume of 200 μL. Increasing concentrations of receptor agonists were used to stimulate [35S]-GTPγS binding. The basal binding was tested in the absence of agonists and non-specific binding was tested in the presence of 10 μM unlabeled GTPγS. The data were analyzed on a Packard Top Count.
% of Basal=(stimulated−non specific)*100/(basal−non specific). EC50 value values were calculated using GraphPad Prism.
(Binding of GTPγS marks nucleotide exchange on a G protein.)

A further experiment addresses mu opioid receptor (Rattus norvegicus, UniProt P33535). The experiment is described as follows: Rat brain mu opioid receptor binding assay ([3H]DAMGO). The settings on record: Rat mu opioid receptor binding constant, rat forebrain membranes, ~0.8 nM [3H]DAMGO.
Experiment [2] has as its target T2, hMOR (CHO-hMOR cell membranes) (Homo sapiens, UniProt P35372).
T2 construct: host or cells: CHO cells expressing hMOR (purchased membranes)
The experiment is described as follows: [35S]GTPγS binding assay in CHO-hMOR cell membranes. The experiment is classed as biochemical. How it is done: [^35]GTPγS Binding Assays in CHO-hMOR Cell Membranes
Methods: CHO-hMOR cell membranes were purchased from Receptor Biology, Inc. (Baltimore, Md.). About 10 mg/mL of membrane protein was suspended in 10 mM TRIS-HCl pH 7.2, 2 mM EDTA, 10% sucrose, and the suspension kept on ice. A 1 mL volume of membranes was added to 15 mL cold binding assay buffer containing 50 mM HEPES, pH 7.6, 5 mM MgCl2, 100 mM NaCl, 1 mM DTT and 1 mM EDTA. The membrane suspension was homogenized with a Polytron and centrifuged at 3,000 rpm for 10 min. The supernatant was then centrifuged at 18,000 rpm for 20 min. The pellet was resuspended in 10 mL assay buffer with a Polytron. The membranes were preincubated with wheat germ agglutinin coated SPA beads (Amersham) at 25° C. for 45 min in the assay buffer. The SPA bead (5 mg/mL) coupled membranes (10 μg/mL) were then incubated with 0.5 nM [^35S]GTPγS in the assay buffer. […] A range of concentrations of receptor agonist was used to stimulate [35S]GTPγS binding. Both basal and non-specific binding was tested in the absence of agonist; non-specific binding determination included 10 μM unlabeled GTPγS.
Compounds were tested for function as antagonists by evaluating their potential to inhibit agonist-stimulated GTPγS binding. Radioactivity was quantified on a Packard TopCount. The following parameters were calculated: [formula] [formula]
EC50 values were calculated using GraphPad Prism.

The mark [3] stands for this setting: DOR GTPγS EC50, NG108-15 cell membranes.
Where [4] appears, read: NG108-15 cell membranes, read-out: DOR GTPγS EC50.
Where [5] appears, read: CHO-hMOR cell membranes, [35S]GTPγS binding, read-out: hMOR GTPγS EC50.

T2 sequence (P35372 whole entry): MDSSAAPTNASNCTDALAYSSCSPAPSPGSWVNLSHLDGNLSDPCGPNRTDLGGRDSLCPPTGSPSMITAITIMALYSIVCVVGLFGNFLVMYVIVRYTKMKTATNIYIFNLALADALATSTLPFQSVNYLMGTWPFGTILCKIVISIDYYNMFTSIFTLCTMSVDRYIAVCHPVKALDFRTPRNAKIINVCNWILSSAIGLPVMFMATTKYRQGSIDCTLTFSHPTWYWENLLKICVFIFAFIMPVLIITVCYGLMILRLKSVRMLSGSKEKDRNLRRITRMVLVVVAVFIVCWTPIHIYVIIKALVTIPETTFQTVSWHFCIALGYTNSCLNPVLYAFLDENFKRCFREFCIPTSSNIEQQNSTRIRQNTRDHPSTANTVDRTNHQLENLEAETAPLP
Sequence of mu opioid receptor (P33535 whole entry): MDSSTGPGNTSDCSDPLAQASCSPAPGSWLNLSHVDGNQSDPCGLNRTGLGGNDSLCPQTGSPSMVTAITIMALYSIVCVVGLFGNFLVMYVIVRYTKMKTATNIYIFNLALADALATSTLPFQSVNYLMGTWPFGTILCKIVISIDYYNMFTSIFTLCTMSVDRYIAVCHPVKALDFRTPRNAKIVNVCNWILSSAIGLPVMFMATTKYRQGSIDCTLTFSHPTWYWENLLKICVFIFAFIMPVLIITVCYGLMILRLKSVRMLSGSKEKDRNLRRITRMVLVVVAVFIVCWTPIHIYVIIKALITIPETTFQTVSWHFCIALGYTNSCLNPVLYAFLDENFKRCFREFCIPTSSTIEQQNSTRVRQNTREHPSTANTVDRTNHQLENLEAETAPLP
Sequence of delta opioid receptor (P33533 whole entry): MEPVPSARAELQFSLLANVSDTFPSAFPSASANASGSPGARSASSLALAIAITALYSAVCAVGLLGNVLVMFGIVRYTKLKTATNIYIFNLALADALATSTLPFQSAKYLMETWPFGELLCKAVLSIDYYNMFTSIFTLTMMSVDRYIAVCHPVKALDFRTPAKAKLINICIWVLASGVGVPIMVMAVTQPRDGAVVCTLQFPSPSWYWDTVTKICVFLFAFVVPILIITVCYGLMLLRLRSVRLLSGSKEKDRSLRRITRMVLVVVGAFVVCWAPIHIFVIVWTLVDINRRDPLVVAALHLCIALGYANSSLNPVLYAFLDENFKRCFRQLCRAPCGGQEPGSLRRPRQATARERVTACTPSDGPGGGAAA
T1 sequence (P32300 whole entry): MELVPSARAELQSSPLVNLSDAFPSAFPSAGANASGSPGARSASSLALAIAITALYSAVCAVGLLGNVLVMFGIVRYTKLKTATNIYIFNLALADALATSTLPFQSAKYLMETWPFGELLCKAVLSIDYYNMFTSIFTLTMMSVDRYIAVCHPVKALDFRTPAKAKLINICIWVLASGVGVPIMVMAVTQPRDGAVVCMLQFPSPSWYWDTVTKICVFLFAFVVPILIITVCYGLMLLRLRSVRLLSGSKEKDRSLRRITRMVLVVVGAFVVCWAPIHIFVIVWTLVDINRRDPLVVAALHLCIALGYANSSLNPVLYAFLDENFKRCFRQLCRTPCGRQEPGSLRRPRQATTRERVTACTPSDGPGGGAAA

For the compound `CCN(CC)C(=N)c1ccc2c(c1)Oc1ccccc1C2=C1CC2CCC(C1)N2` [Cpd 125], the Ki on delta opioid receptor (DOR Ki) was 6.3 nM; on mu opioid receptor (MOR Ki), 2050 nM. In addition, the EC50 was 78.3 nM in experiment [1] (setting [3]) and over 10000 nM in experiment [2].

As for `Oc1cccc2c1Oc1cc(-c3nnn[nH]3)ccc1C2=C1CC2CCC(C1)N2` [Cpd 90], the values for the EC50 in experiment [1] (setting [4]) and in experiment [2] (setting [5]) were 0.7 nM and 90 nM, respectively.

Regarding `Oc1cccc2c1Oc1cc(-c3cnc4ccccc4c3)ccc1C2=C1CC2CCC(C1)N2` [Cpd 109], the Ki amounted to 2.22 nM at delta opioid receptor (read-out: DOR Ki) and 31 nM on mu opioid receptor (read-out: MOR Ki). The figures for the EC50 in experiment [1] (setting [4]) and in experiment [2] (setting [5]) were 94.2 nM and 1230 nM, respectively.

As to `c1ccc2c(c1)Oc1cc(-c3nnn[nH]3)ccc1C2=C1CC2CCC(C1)N2` [Cpd 1, 3-[3-(1H-Tetrazol-5-ly)-xanthen-9-ylidene]-8-aza-bicyclo[3.2.1]octane], the Ki on delta opioid receptor (DOR Ki) worked out at 1.99 nM; at mu opioid receptor (MOR Ki), 637 nM. In addition, the EC50 in experiment [1] (setting [3]) was 189 nM and 70.3 nM.

Consider `Cc1cccc(C)c1OCC(C)NC(=O)c1ccc2c(c1)Oc1ccccc1C2=C1CC2CCC(C1)N2` (stereo not shown) [Cpd 13], for which the values for the Ki at delta opioid receptor (DOR Ki) and at mu opioid receptor (read-out: MOR Ki) were 23.6 nM and 2920 nM, respectively. Also, the EC50 in experiment [1] (setting [4]) came to 641 nM.

With `O=C(c1ccc2c(c1)Oc1ccccc1C2=C1CC2CCC(C1)N2)N1CCCC1` [Cpd 6, [9-(8-Aza-bicyclo[3.2.1]oct-3-ylidene)-9H-xanthen-3-yl]-pyrrolidin-1-yl-methanone], the Ki was determined as 7.4 nM on delta opioid receptor (DOR Ki) and 1400 nM on mu opioid receptor (MOR Ki). In experiment [1] (setting [3]), this compound displayed an EC50 of 59 nM.

Turning to `c1cncc(-c2ccc3c(c2)Oc2ccccc2C3=C2CC3CCC(C2)N3)c1` [Cpd 12, 3-(3-Pyridin-3-yl-xanthen-9-ylidene)-8-aza-bicyclo[3.2.1]octane], the Ki at delta opioid receptor (DOR Ki) is 24 nM; on mu opioid receptor (MOR Ki), 2130 nM. Also, the results for the EC50 in experiment [1] (setting [3]) and in experiment [2] were 587 nM and 0.47 nM, respectively.

Take `S=c1[nH]c(-c2ccc3c(c2)Oc2ccccc2C3=C2CC3CCC(C2)N3)no1` [Cpd 94]: the Ki on delta opioid receptor (read-out: DOR Ki) turned out to be 0.04 nM; at mu opioid receptor (read-out: MOR Ki), 219 nM. The EC50 in experiment [1] (setting [4]) came to 126 nM.

As to `O=c1[nH]c(-c2ccc3c(c2)Oc2ccccc2C3=C2CC3CCC(C2)N3)no1` [Cpd 92], the Ki was determined as 0.07 nM on delta opioid receptor (read-out: DOR Ki) and 502 nM at mu opioid receptor (read-out: MOR Ki). Moreover, the EC50 in experiment [1] (setting [4]) stood at 102 nM.

For `CC(=O)Nc1ccccc1-c1ccc2c(c1)Oc1ccccc1C2=C1CC2CCC(C1)N2` [Cpd 2, N-{2-[9-(8-Aza-bicyclo[3.2.1]oct-3-ylidene)-9H-xanthen-3-yl]-phenyl}-aceta-mide], the figures for the Ki on delta opioid receptor (DOR Ki) and on mu opioid receptor (MOR Ki) were 4.36 nM and 1140 nM, respectively. The same compound had an EC50 in experiment [1] (setting [3]) of 394 nM.

On to `CCN(CC)C(=N)c1ccc2c(c1)Oc1ccccc1C2=C1CC2CCC(C1)N2` [Cpd 126], for which the Ki is 1410 nM at delta opioid receptor (read-out: DOR Ki) and over 10000 nM at mu opioid receptor (read-out: MOR Ki). Further, the EC50 in experiment [1] (setting [4]) and in experiment [2] (setting [5]) was over 10000 nM in each case.

Regarding `COCCN(C)C(=O)c1ccc2c(c1)Oc1ccccc1C2=C1CC2CCC(C1)N2` [Cpd 7], the Ki on delta opioid receptor (DOR Ki) amounted to 7.63 nM; on mu opioid receptor (MOR Ki) it was 1810 nM. In addition, it took 173 nM to reach a half-maximal effect in experiment [1] (setting [3]) (EC50).

Consider `O=c1[nH]c(-c2ccc3c(c2)Oc2ccccc2C3=C2CC3CCC(C2)N3)ns1` [Cpd 101], for which the figures for the Ki at delta opioid receptor (read-out: DOR Ki) and at mu opioid receptor (read-out: MOR Ki) were 7 nM and 465 nM, respectively. In addition, in experiment [1] (setting [4]), the EC50 was 281 nM.

Take `S=c1[nH]c(-c2ccc3c(c2)Oc2ccccc2C3=C2CC3CCC(C2)N3)no1` [Cpd 93]: the Ki on delta opioid receptor (read-out: DOR Ki) was determined as 0.37 nM; on mu opioid receptor (read-out: MOR Ki), 3740 nM. The EC50 in experiment [1] (setting [4]) was 631 nM.

Turning to `O=c1[nH]c(-c2ccc3c(c2)Oc2ccccc2C3=C2CC3CCC(C2)N3)ns1` [Cpd 8, 3-[9-(8-Aza-bicyclo[3.2.1]oct-3-ylidene)-9H-xanthen-3-yl]-4H-[1,2,4]thiadiazol-5-one], the Ki at delta opioid receptor (DOR Ki) came to 10.8 nM; at mu opioid receptor (MOR Ki), 1080 nM. The same compound registered an EC50 in experiment [1] (setting [3]) of 359 nM.

For `Cn1nnc(-c2ccc3c(c2)Oc2ccccc2C3=C2CC3CCC(C2)N3)n1` [Cpd 16, 3-[3-(2-Methyl-2H-tetrazol-5-yl)-xanthen-9-ylidene]-8-aza-bicyclo[3.2.1]octane], the values for the Ki on delta opioid receptor (DOR Ki) and at mu opioid receptor (MOR Ki) were 30 nM and 1460 nM, respectively. The figures for the EC50 in experiment [1] (setting [3]) and in experiment [2] were 573 nM and 0.48 nM, respectively.

As to `O=c1[nH]c(-c2ccc3c(c2)Oc2ccccc2C3=C2CC3CCC(C2)N3)no1` [Cpd 4, 3-[9-(8-Aza-bicyclo[3.2.1]oct-3-ylidene)-9H-xanthen-3-yl]-4H-[1,2,4]oxadiazol-5-one], the figures for the Ki on delta opioid receptor (DOR Ki) and on mu opioid receptor (MOR Ki) were 6.78 nM and 768 nM, respectively. This compound gave an EC50 in experiment [1] (setting [3]) of 128 nM.

Broadly, the Ki is a dissociation constant, usually derived from enzyme kinetics or from competition with a known ligand. One may read the EC50 as the concentration that produces a half-maximal response.
